Assays:
UCHL1 = UCHL1 (Homo sapiens (Human), UniProt P09936); assay: UCHL1 biochemical inhibition (ubiquitin hydrolase activity, purified enzyme)
USP30 = USP30 (Homo sapiens (Human), UniProt Q70CQ3); assay: USP30 biochemical IC50
[1] = system: native DUBs (UCHL1, USP30 and JOSD1); assay: Competitive activity-based protein profiling with quantitative mass spectrometry in HEK-293T lysates; assay type: binding; conditions: block of labeling by DUB activity-based probes
Method: Activity Based Protein Profiling (ABPP) assay. DUB targets were investigated using competitive ABPP with quantitative mass spectrometry. The ability to block labeling of 50 DUBs by ubiquitin-based DUB activity-based probes was quantitatively measured in HEK-293T lysates.
DUB ABPP of Compound Targets. Activity-based probes biotin-Ub-PA (UbiQ-076) and biotin-Ub-VME (UbiQ-054) were obtained from UbiQ Bio. DUB Activity based protein profiling was performed using conditions modified from those in Schauer, et al., 2020, Scientific Reports, 10:1-15, based on work by Lawson, et al., 2017 Oncotarget, 8:51296-316. HEK 293T cells were lysed (50 mM Tris pH 8.0, 150 mM NaCl, 5 mM MgC2, 0.5 mM EDTA, 0.5% NP-40, 10% glycerol, 1 mM tris(2-carboxyethyl)phosphine (TCEP), protease and phosphatase inhibitors) and the lysate was clarified by centrifugation, then diluted to 10 mg/mL. 200 μL aliquots were incubated at the indicated compound concentrations or DMSO for 5 hours at room temperature, final DMSO concentration 0.5%. Afterwards, the treated lysates were incubated with 1 μM each of Biotin-Ub-PA and Biotin-Ub-VME for 90 minutes at room temperature. […]
Specifically, quantitative mass spectrometry was utilized to measure the ability of compounds 1 and 2 to block labeling of […] native DUBs by ubiquitin-based DUB activity-based probes in HEK-293T lysates. […]

[2] = system: Ba/F3-EPOR-JAK2-V617F-expressing cells; assay: Ba/F3 cell proliferation (CellTiter Glo); assay type: cell-based, murine
Method: Proliferation and Drug Combination Studies. Proliferation and drug combination studies were carried out as previously described (Yang, et al., 2020, British Journal of Cancer, 122:1175-84).
As toxicities can result from small molecule targeting of both oncogenic mutated JAK2 as well as its non-mutated counterpart, a chemical genetics screen was designed and performed of a DUB-focused small molecule inhibitor library with the goal of leveraging crosstalk between phosphorylation and ubiquitination to identify DUB inhibitors able to selectively degrade mutant JAK2 while sparing wt JAK2. Of relevance, activated FLT3 can be selectively degraded over the wt enzyme by inhibition of the DUB, USP10, (Wernig, et al., 2008, Blood, 111(7):3751-9) and similar to FLT3, JAK2 is ubiquitinated in an activation-dependent manner. In brief, the library of known and novel DUB inhibitors was evaluated for ability to suppress growth of Ba/F3-EPOR-JAK2-V617F-expressing cells selectively over Ba/F3-EPOR cells growing in the presence of interleukin-3.
(§1) A broader range of compounds 1 and 2, including concentrations lower than 1 μM, were also tested on growth of EPOR-JAK2-V617F-expressing Ba/F3 cells and parental Ba/F3 EpoR+ cells (24 hours treatment on 4000 cells per well) (FIG. 18-FIG. 18B). Cell growth inhibition (FIG. 17A-FIG. 17B, FIG. 18A-FIG. 18B) was tested on Ba/F3-EPOR-JAK2-V617F (-IL-3/WEHI) and parental Ba/F3-EPOR cells (+IL-3/WEHI) plated at 2000 cells per well, at 1, 3 and 10 μM for 24 hours using the Promega CellTiter Glo® assay.

JAK2-V617F [3] = assay: JAK2 protein level by western blotting in Ba/F3-EPOR-JAK2-V617F cells; assay type: cell-based
Method: Immunoblotting and Immunoprecipitation. Protein lysate preparation, immunoblotting, and immunoprecipitation were carried out as previously described (Lamberto, et al., 2017 Cell Chem Biol., 224(12):1490-500 e11). Briefly, 0.7×10^6 cells were treated with compounds 1 and 2 at 0, 5, 10, […], cells were collected, and lysate was prepared in radioimmunoprecipitation assay (RIPA) buffer, JAK family and downstream signaling protein levels were detected by western blotting with the indicated antibodies. For immunoprecipitation, 1 mg protein for each sample was prepared and 1 μg antibody was used, immunoglobulin G (IgG) was added in same amount as nontargeting control.
as §1

wt JAK2 = wt JAK2 (Mus musculus (Mouse), UniProt Q62120); assay: JAK2 protein level by western blotting in Ba/F3-EPOR-JAK2 wt cells; assay type: cell-based
Method: (§2) Immunoblotting and Immunoprecipitation. Protein lysate preparation, immunoblotting, and immunoprecipitation were carried out as previously described (Lamberto, et al., 2017 Cell Chem Biol., 224(12):1490-500 e11). Briefly, 0.7×10^6 cells were treated with compounds 1 and 2 at 0, 5, 10, and 20 μM for 16 or 24 hours, cells were collected, and lysate was prepared in radioimmunoprecipitation assay (RIPA) buffer, JAK family and downstream signaling protein levels were detected by western blotting with the indicated antibodies. For immunoprecipitation, 1 mg protein for each sample was prepared and 1 μg antibody was used, immunoglobulin G (IgG) was added in same amount as nontargeting control.

HEL cells = assay: HEL cell growth inhibition by fresh or aged drug stocks (stability); assay type: cell-based, human; conditions: stocks stored two to three years at −20° Celsius; 2.5, 5, 10, 20 μM, 24 hours
Method: Fresh or aged stocks of compounds 1 and 2 were tested for the ability to inhibit HEL cell growth at 2.5, 5, 10, and 20 μM of each drug after 24 hours (FIG. 19A-FIG. 19B).
The CellTiter Glo® assay was performed using HEL cells seeded at 1000 cells/well of a 96-well plate. The “fresh” drug stocks were obtained frozen (stored at −20° Celsius) within days of executing the proliferation experiment for which results are shown. The “aged” drug stocks were obtained from freeze-thawed stocks serially diluted and stored at −20° Celsius in the laboratory. The “aged” stocks were stored between at least two years to three years at −20° Celsius with little to no freeze-thaw cycles prior to execution of the proliferation experiment for which results are shown. “Aged” stocks may be stored for several years (e.g., at least one year, at least two years, at least three years, at least four years or more) at −20° Celsius prior to use.

JAK2-V617F [4] = target: JAK2-V617F (Homo sapiens (Human), UniProt O60674, V617F); assay: JAK2-V617F protein loss in human AML cell lines by western blotting; assay type: cell-based; conditions: HEL cells, co-treatment with cycloheximide
Method: as §2

normal bone marrow cells = assay: Normal bone marrow colony assay; assay type: cell-based, human
Method: Normal human bone marrow was also analyzed in a colony assay: 24-well plates seeded with 200 cells/well in MethoCult™ H4434 Classic (methylcellulose-based medium with recombinant cytokines for human cells) ([…] Technologies™ INC., Vancouver, British Columbia, Canada). The plates contained targeted JOSD1 inhibitors at the indicated concentrations. Plates were incubated at 37° C. in 5% CO2 for >1 week, and then myeloid and erythroid colonies (early progenitors with erythroid and myeloid components: colony-forming unit for granulocytes and macrophages (CFU-GM), CFU-erythroid (E), BFU-E, and CFU-granulocyte, erythroid, macrophage, megakaryocyte (GEMM) were counted on an inverted microscope.

JOSD1 [5] = target: T1, JOSD1 (Homo sapiens (Human), UniProt Q15040); assay: In vitro JOSD1 activity assay (biochemical IC50, purified enzyme)
Method: (§3) In vitro JOSD1 activity assay & Ubiquitin-7-amido-4-methylcoumarin (AMC) assay. In vitro JOSD1 activity assay was carried out with Ubiquitin-AMC assay. […] Recombinant JOSD1 was tested for activity in a Ubiquitin-AMC assay in the presence or absence of inhibitors. […] The reaction was incubated for 6 hours at room temperature prior to the addition of 2 μM Ubiquitin-AMC (Boston Biochem) substrate. The initial rate of the reaction was measured by collecting fluorescence data at one-minute intervals over a 30-minute period using a Clariostar® fluorescence plate reader at excitation and emission wavelengths of 345 and 445 nm, respectively. The calculated initial rate values were plotted against inhibitor concentrations to determine IC50 values.
(§4) In vitro JOSD1 activity assay. Recombinant full-length JOSD1 was tested for activity in a Ubiquitin-AMC assay in the presence or absence or inhibitors. For this assay, 10 nM JOSD1 was pre-incubated with different concentrations of inhibitors or DMSO as a control in 50 mM Tris 8.0, 0.5 mM EDTA, 10 mM ovalbumin, 5 mM DTT. The reaction was incubated for 6 h at room temperature prior to the addition of 2 mM Ubiquitin-AMC (Boston Biochem) substrate. The initial rate of the reaction was measured by collecting fluorescence data at one-minute intervals over a 30-minute period using a CLARIOstar® fluorescence plate reader at excitation and emission wavelengths of 345 and 445 nm, respectively. The calculated initial rate values were plotted against inhibitor concentrations to determine IC50 values.
(§5) JOSD1 biochemical inhibition was investigated for the analogs shown using the fluorescent substrate ubiquitin-rhodamine against purified enzyme in a continuous kinetic assay.

JOSD1 [6] = target: T1, JOSD1; assay: biochemical
Method: as §3, §4, §5

Chain of UCHL1 (P09936 whole entry, species assumed): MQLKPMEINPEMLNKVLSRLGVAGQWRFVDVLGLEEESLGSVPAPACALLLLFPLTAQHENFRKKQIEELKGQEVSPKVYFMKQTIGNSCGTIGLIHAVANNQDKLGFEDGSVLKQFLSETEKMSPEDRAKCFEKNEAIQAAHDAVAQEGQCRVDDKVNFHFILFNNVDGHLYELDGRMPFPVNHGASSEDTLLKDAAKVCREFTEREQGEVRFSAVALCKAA
Chain of USP30 (Q70CQ3 whole entry, species assumed): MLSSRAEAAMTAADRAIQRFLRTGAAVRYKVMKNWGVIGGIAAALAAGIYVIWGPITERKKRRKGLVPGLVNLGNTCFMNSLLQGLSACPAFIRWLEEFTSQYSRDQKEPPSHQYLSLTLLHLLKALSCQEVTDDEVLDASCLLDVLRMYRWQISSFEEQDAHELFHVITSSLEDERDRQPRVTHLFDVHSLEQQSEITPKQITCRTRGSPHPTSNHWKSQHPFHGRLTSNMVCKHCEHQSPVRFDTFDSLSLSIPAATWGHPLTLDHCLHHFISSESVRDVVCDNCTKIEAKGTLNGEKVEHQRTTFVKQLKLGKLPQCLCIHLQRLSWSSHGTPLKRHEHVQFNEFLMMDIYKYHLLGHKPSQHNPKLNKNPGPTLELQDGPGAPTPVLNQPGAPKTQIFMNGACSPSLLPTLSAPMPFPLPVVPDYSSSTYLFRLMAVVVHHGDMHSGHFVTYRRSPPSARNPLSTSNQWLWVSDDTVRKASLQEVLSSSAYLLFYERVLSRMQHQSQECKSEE

Compound | UCHL1 biochemical IC50 (range in words) (UCHL1) | USP30 biochemical IC50 (range in words) (USP30) | target engagement of UCHL1, USP30 and JOSD1 [1] | killing of Ba/F3-EPOR-JAK2-V617F cells compared to wt JAK2-expressing parental Ba/F3 cells [2] | sensitivity compared to Ba/F3 cells overexpressing other oncogenes [2] | cell growth inhibition ([2]; 1, 3 and 10 μM, 24 hours, independent experiments) | JAK2 degradation, independent western blotting (JAK2-V617F [3]; 18 hours, 10 μM compound 1 or 5 μM compound 2) | JAK2-V617F protein level (JAK2-V617F [3]; Ba/F3-EPOR-JAK2-V617F-expressing cells) | JAK2 levels in wt cells (wt JAK2) | stability: growth inhibition by aged stocks versus fresh stocks (HEL cells) | JAK2-V617F protein half-life (JAK2-V617F [4]) | normal bone marrow colony formation (normal bone marrow cells; 5 μM or higher) | normal bone marrow colony formation (normal bone marrow cells; concentrations up to 2.5 μM) | JOSD1 IC50 (range in words) (JOSD1 [5]) | IC50 (JOSD1 [6])
Cc1noc(C)c1-c1ccc2nc(NC(=O)[C@H]3CCN(C#N)C3)sc2c1 [Compound 1, (S)-1-cyano-N-(6-(3,5-dimethylisoxazol-4-yl)benzo[d]thiazol-2-yl)pyrrolidine-3-carboxamide] | several hundred | several hundred | dose-dependent target engagement | selective killing | among the highest sensitivity | inhibit growth | degradation of JAK2 | decreases in JAK2-V617F protein | little to no impact on JAK2 levels | comparable cell growth inhibition | shorten JAK2-V617F protein half-life | significantly impaired | colonies were able to form | several hundred | 
CCS(=O)(=O)N1CCN(c2nc3cccc(-c4c(C)noc4C)c3s2)C(=O)C1 [Compound 66] |  |  |  |  |  |  |  |  |  |  |  |  |  |  | > 100 nM

Reference: US20240335427A1, “SMALL MOLECULE INHIBITION OF DEUBIQUITINATING ENZYME JOSEPHIN DOMAIN CONTAINING 1 (JOSD1) AS A TARGETED THERAPY FOR LEUKEMIAS WITH MUTANT JANUS KINASE 2 (JAK2)” (DANA-FARBER CANCER INSTITUTE, INC., priority 2021, published 2024)
